The text below walks through data of patent publication US7741283B2, “Compositions and methods for inhibiting cell proliferation” (St. Louis University, priority 2003, dated 2010).

Experiment [1] has as its system PEA-13 cells. As to the kind of experiment: [methyl-3H] thymidine incorporation, PEA-13 cells. The class given is cell-based, mouse. The conditions noted are these: IGFBP-3 up to 1 μg/ml. Here is the method:
(§1) FIG. 7 depicts the effect of TGF-β1 on DNA synthesis (A), cell growth (B) and PAI-1 expression (C) in MEF and PEA-13 cells. (A) Cells were treated with various concentrations of TGF-β1 as indicated. DNA synthesis was determined by measuring [methyl-^3H] thymidine incorporation into cellular DNA. The [methyl-^3H] thymidine incorporation in cells treated without TGF-β1 (100,861±3,720 and 103,262±6,722 cpm/well for MEF and PEA-13 cells, respectively) was taken as 0% inhibition. The negative values of inhibition indicate mitogenic activity. […] Each datapoint is the mean±S.D. of quadruplicate determinations. […] Data are representative of six similar experiments. (B) Cells were treated with various concentrations of TGF-β1 as indicated. The cell number was counted after a 4 day incubation. […] The negative values of the inhibition indicate the growth stimulatory activity. Each datapoint is the mean±S.D. of quadruplicate determinations. […] Data are representative of four similar experiments. (C) Cells were treated with various concentrations of TGF-β1 as indicated. The PAI-1 expression in these cells was determined by Northern blot analysis. The expression of G3PDH was used as control. The relative levels of the transcripts were quantified by a PhosphoImager. Data are representative of four similar experiments. […]

The subject of another experiment is R1B cells. Conditions: IGFBP-3 0.5 μg/ml; cited from earlier work.
Experiment [2] has as its system PEA-C11 cells. Briefly: [methyl-3H] thymidine incorporation, PEA-C11 cells. In kind it is cell-based, mink. Conditions: IGFBP-3 0.5 μg/ml. Background: Dividing cells build labelled thymidine or BrdU into new DNA.
The subject of experiment [3] is 32D cells expressing vector only. Briefly: [methyl-3H] thymidine incorporation, 32D cells transfected with vector only. The class given is cell-based, murine.
The test system of experiment [4] is PEA-C11 cells. Briefly: Cell growth (cell number), PEA-C11 cells. In kind it is cell-based, mink. Conditions: IGFBP-3 0.5 μg/ml, PEA-C11, 4-day. The protocol: FIG. 6 depicts the effects of IGFBP-3 and TGF-β1 on DNA synthesis (A), cell growth (B) and PAI-1 expression (C) in Mv1Lu and PEA-C11 cells. (A,B) Cells were incubated with various concentrations of IGFBP-3 (a) or TGF-β1 (b) as indicated. DNA synthesis and cell growth were determined by measuring the [methyl-^3H] thymidine incorporation into cellular DNA after 18 hr incubation (A) and by counting cell number after a 4-day incubation (B), respectively. The [methyl-^3H] thymidine incorporation in cells treated without IGFBP-3 and TGF-β1 (29,170±1,657 and 59,947±7,692 cpm/well for Mv1Lu and PEA-C11 cells, respectively) were taken as 0% inhibition. […] Each data point is the mean±S.D. of quadruplicate determinations. […] Data are representative of eight similar experiments. (C) Cells were incubated with various concentrations of TGF-β1 as indicated. After 2 hr at 37° C., the PAI-1 expression was determined by Northern blot analysis. The expression of glyceraldehyde-3-phosphate dehydrogenase (G3PDH) was used as control. The relative levels of the transcripts were quantified by a Phospholmager. Data are representative of four similar experiments.
Cells were plated at a density of 1-2×10^4 cells/dish in DMEM containing 1% fetal calf serum. The cell number was counted every day or after a 3-day incubation using a hematocytometer. The assays were performed in quadruplicate.

Experiment [5] deals with IRS-2. As to the kind of experiment: 32P metabolic labeling and immunoprecipitation of IRS-2, Mv1Lu cells. The class given is cell-based, mink.
The target of the next experiment is acidic pH binding sites (Neogale vison, UniProt A0A8C7BSJ2). As to the kind of experiment: Specific binding of 125I-ligands to Mv1Lu cells at acidic pH. Also noted: species or system mink. The conditions noted are these: Mv1Lu cells; EGTA/BAPTA- or GST-RAP-sensitive binding, 0° C.
Sequence of acidic pH binding sites (A0A8C7BSJ2 entry or part of it): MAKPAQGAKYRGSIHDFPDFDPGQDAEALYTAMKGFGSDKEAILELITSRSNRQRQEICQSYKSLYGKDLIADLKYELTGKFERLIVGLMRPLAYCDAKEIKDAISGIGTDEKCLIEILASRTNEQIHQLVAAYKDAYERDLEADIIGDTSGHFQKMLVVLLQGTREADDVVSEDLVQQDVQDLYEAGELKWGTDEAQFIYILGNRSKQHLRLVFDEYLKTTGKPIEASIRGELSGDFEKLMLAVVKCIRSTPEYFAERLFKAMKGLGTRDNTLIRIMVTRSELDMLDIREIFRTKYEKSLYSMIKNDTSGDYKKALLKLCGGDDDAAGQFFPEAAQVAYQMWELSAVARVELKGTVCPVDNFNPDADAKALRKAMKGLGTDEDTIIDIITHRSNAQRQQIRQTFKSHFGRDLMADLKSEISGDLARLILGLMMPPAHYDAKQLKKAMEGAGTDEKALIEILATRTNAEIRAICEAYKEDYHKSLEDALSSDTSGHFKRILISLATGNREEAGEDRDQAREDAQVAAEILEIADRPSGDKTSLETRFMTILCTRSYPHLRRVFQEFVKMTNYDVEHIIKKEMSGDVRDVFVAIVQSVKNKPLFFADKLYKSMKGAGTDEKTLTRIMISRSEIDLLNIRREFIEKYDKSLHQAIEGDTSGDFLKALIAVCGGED
The subject of experiment [6] is IRS-2. Briefly: Determination of tyrosine phosphorylation of IRS-2, Mv1Lu cells. In kind it is cell-based, mink. The protocol: FIG. 15 depicts tyrosine phosphorylation of IRS-2 in Mv1Lu cells treated with IGFBP-3 and insulin. Cells were stimulated with or without insulin (10 nM) for 10 min and then treated with or without IGFBP-3 (1 μg/ml) for 1 hr (A). On the other hand, cells pretreated with or without IGFBP-3 (1 μg/ml) for 2 hr and then stimulated with insulin (10 nM) for 10 min (B, lane 1 and lane 2, respectively). In a parallel experiment, cells were treated with insulin (10 nM) in the presence and absence of IGFBP-3 (1 μg/ml) for 2 hr (B, lane 3 and lane 4, respectively). […] The arrow indicates the location of tyrosine-phosphorylated IRS-2.
Mv1Lu cells were plated on 30-mm dishes at a cell density of 4×10^4/cm^2 in DMEM containing 10% fetal calf serum. The cells in serum-free DMEM were pre-treated with IGFBP-3 (1 μg/ml) for 1 or 2 hr and then treated with insulin (10 nM) for 10 min or treated with insulin (10 nM) for 10 min and then treated with IGFBP-3 (1 μg/ml) for a further 2 hr, or treated simultaneously with insulin (10 nM) and IGFBP-3 (1 μg/ml) for 2 hr. The experiments were carried out at 37° C. The cell lysates were subjected to immunoprecipitation using anti-IRS-2 IgG followed by 7.5% SDS-PAGE and Western blot analysis using anti-phosphotryosine IgG and the ECL system (Santa Cruz).

The next experiment has as its system 32D/IR/IRS-2 cells. Briefly: [methyl-3H] thymidine incorporation, 32D/IR/IRS-2 cells. The conditions noted are these: 32D cells expressing IRS-2 and insulin receptor. In kind it is cell-based, murine.
Experiment [7] relates to PEA-13 cells. As to the kind of experiment: Cell growth (cell number), PEA-13 cells. Conditions: IGFBP-3 up to 1 μg/ml. In kind it is cell-based, mouse. The protocol: as §1, with “The expression of G3PDH was used as control.” left out, “PhosphoImager.” for “PhosphoImager. Data are representative of four similar experiments.”
Cells were plated at a density of 1-2×10^4 cells/dish in DMEM containing 1% fetal calf serum. The cell number was counted every day or after a 3-day incubation using a hematocytometer. […]

Another experiment has as its system H1299/vector cells. Briefly: [methyl-3H] thymidine incorporation, H1299/vector cells. In kind it is cell-based, human. The conditions noted are these: various concentrations.
Another experiment has as its system H1299/LRP cells. As to the kind of experiment: [methyl-3H] thymidine incorporation, H1299/LRP cells. In kind it is cell-based, human. The conditions noted are these: various concentrations.

Take “IGFBP-3: human insulin-like growth factor binding protein-3 expressed in E. Coli”: the “Effect on DNA synthesis” value in the experiment on PEA-13 cells [1] is listed as “did not appear to have a significant effect”; with H1299/vector cells it was “acted as mitogens or growth stimulators”; in the experiment with H1299/LRP cells it was “inhibited”. Moreover, the “Inhibition of DNA synthesis” value with R1B cells is 30-50%; in the experiment with PEA-C11 cells [2], roughly 10%; in experiment [3], “minimally or not at all”. The “Inhibition of cell growth” value in the experiment with PEA-C11 cells [4] is on record as roughly 45%. For the same substance, the “Incubation time after which mobility change of 32P-labeled IRS-2 occurred” value with IRS-2 [5] (IGFBP-3 1 μg/ml, Mv1Lu) came to 0.5 h. The “Half-optimal concentration (ED50) to induce electrophoretic mobility change of 32P-labeled IRS-2” value in the experiment with IRS-2 [5] (Mv1Lu cells) lay in the range of 0.1 to 0.3 µg/mL. Moreover, the “Induction of specific dephosphorylation (mobility change) of 32P-labeled IRS-2” value in the experiment with IRS-2 [5] (Mv1Lu, IGFBPs 1 μg/ml, TGF-β1 20 pM) is reported as “induces specific dephosphorylation”. The “pH of optimal/maximal binding” value with acidic pH binding sites is 5. Further, the “Effect on insulin-stimulated tyrosine phosphorylation of IRS-2” value in the experiment with IRS-2 [6] (IGFBP-3 pretreatment 2 hr, then insulin 10 nM 10 min) is listed as “diminished”; with IRS-2 [6] (insulin 10 nM 10 min, then IGFBP-3 1 μg/ml 1 hr), “failed to affect”; with IRS-2 [6] (simultaneous insulin 10 nM and IGFBP-3 1 μg/ml, 2 hr) it was “enhancement”. For the same substance, in the experiment on 32D/IR/IRS-2 cells, the “Growth inhibitory response (DNA synthesis)” value is given as “potent growth inhibitory response”. Further, the “Effect on cell growth” value in the experiment with PEA-13 cells [7] is “did not appear to have a significant effect”.
